The target of test [1] is T1, HIV-1 reverse transcriptase (HIV-1 RT) (Human immunodeficiency virus type 1 group M subtype B, UniProt P03366).
T1 construct: HIV-1 reverse transcriptase (HIV-1 RT) was purchased from Abcam (cat#ab63979); purchased Abcam ab63979
Description: HIV-1 reverse transcriptase RdDp activity assay. It is filed as biochemical. The source says: HIV-1 reverse transcriptase (HIV-1 RT) was purchased from Abcam (cat#ab63979). Recombinant HBV polymerase (Hepatitis B virus genotype D subtype ayw, full length) was cloned using the baculovirus system, expressed in sf9 cells, and purified with similar strategy and methods described by Lanford et al.. A DNA primer (5′-[…]-3′) was synthesized by IDTDNA and a 358-nt RNA template was synthesized in-house using Megascript T7 transcription kit (ThermoFisher, cat#AM1334). dNTPs were purchased from Thermo Fisher and ^3H-dTTP from Perkin Elmer. Filter plates were purchased from Millipore (cat#MABN0V050) and microscint-20 was purchased from Perkin Elmer (cat#6013621).
The RNA-dependent DNA polymerization (RdDp) activity of HIV-1 RT was measured by the incorporation of radioactively labeled nucleotides by HIV-1 RT into acid-insoluble DNA products from the DNA primer primed RNA template. To test compound inhibition, the reactions were performed at 30 °C for 40 min in a reaction mixture containing reaction buffer (50 mM Tris-Cl, pH 7.5, 100 mM KCl, 12.5 mM MgCl2, 4 mM DTT), 1 nM HIV-1 RT, 0.1 µM DNA primer, 0.02 µM RNA template, 10% DMSO, 0.1 µM dATP, 1 µM dGTP, 0.1 µM dCTP, 0.32 µM ^3H-dTTP, and compounds at various concentrations. The 50 µL reactions were performed in 96-well plates. The reactions were quenched with a 60 µL cold mixture of 20% (w/v) TCA and 0.5 mM ATP and incubated at 4 °C for 1 h. The reactions were loaded onto 96-well filter plates. The filters on plates were washed three times with 10% TCA and once with 70% ethanol on a Millipore plate wash station with vacuum applied. The filters on the plate were air-dried and 40 μL Microscint-20 was added to each well. The acid-precipitated tritiated DNA products retained on the filters were detected by a Trilux MicroBeta scintillation reader (Perkin Elmer).
All data were analyzed with GraphPad Prism. The compound concentration at which the enzyme-catalyzed rate was reduced by 50% (IC50) was calculated by fitting the data to the equation Y = % Min + (% Max − % Min) / (1 + 10^((logIC50-X)*h)), where Y corresponds to the percent inhibition to the enzyme activity, % Min is the residual inhibition activity without compound, % Max is the maximum inhibition of enzyme activity at saturating compound concentration, and X corresponds to the log of compound concentrations, and h is the hillslope.

A further test has as its target T2, human DNA polymerase γ (Homo sapiens, UniProt P54098).
T2 construct: purchased Abcam 196066
T2 sequence (P54098 1-1239): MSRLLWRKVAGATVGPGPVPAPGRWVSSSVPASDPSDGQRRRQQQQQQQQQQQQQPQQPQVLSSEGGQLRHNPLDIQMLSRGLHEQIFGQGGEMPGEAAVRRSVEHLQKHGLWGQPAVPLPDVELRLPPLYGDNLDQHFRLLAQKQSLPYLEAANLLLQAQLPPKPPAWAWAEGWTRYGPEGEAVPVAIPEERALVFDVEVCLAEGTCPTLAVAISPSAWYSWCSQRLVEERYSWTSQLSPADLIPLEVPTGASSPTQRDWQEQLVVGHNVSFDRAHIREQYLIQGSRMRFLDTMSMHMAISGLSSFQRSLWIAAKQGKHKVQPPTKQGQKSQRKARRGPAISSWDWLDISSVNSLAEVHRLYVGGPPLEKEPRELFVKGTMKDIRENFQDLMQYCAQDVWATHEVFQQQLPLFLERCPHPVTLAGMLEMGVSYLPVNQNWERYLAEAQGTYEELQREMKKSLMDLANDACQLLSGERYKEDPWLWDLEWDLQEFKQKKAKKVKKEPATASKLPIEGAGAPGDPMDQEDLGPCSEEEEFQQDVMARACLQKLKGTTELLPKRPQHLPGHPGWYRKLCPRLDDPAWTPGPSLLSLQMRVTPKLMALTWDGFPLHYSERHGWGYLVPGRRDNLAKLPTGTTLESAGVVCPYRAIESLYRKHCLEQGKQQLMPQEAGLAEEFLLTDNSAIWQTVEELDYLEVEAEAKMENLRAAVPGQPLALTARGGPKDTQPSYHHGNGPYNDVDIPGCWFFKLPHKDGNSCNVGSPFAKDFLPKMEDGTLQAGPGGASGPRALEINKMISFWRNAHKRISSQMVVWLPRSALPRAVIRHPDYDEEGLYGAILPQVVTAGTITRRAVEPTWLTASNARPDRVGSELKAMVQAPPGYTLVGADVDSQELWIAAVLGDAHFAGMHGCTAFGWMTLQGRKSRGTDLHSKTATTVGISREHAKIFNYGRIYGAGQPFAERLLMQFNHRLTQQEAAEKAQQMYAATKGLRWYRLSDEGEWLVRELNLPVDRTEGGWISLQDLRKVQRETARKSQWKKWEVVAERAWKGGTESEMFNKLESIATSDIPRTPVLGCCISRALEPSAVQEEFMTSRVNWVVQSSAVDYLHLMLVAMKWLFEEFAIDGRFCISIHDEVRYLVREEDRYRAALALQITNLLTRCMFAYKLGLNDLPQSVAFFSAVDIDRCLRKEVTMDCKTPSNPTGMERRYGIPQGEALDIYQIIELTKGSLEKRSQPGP
Description: Human DNA polymerase γ DdDp assay. It is filed as biochemical. The method, then: The DNA-dependent DNA polymerization (DdDp) activity of human DNA polymerases α, β, and γ was measured as described previously. Briefly, the assays were run with 5 U/mL recombinant DNA polymerase α (CHIMERx, cat#1075-1), 0.5 U/mL recombinant DNA polymerase β (CHIMERx, cat#1077-1), or 0.1 μg/mL recombinant DNA polymerase γ (Abcam, cat#196066), 62 μg/mL activated calf thymus DNA, 50 mM Tris-HCl (pH 8.0), 60 mM KCl, 5 mM MgCl2, 4 mM dithiothreitol (DTT), 0.1 mg/mL BSA, 2 μM dCTP, 2 μM dATP, 2 μM dGTP, 0.05 μCi/μL ^3H-dTTP (Perkin Elmer) and compounds at various concentrations at 30 °C for 2 h. The 50 μL reactions were processed following the same filter plate method as described above for HIV-1 RT. Acid-precipitated tritiated DNA products retained on the filters were detected by a Trilux MicroBeta scintillation reader (Perkin Elmer). All data were analyzed as described above for HIV-1 RT.

As usually defined, the IC50 is the concentration needed to halve the response being measured. Regarding `Nc1ncnc2c1ncn2[C@@H]1OC[C@](F)(COP(=O)(O)OP(=O)(O)OP(=O)(O)O)[C@H]1CO` [Compound 38, ((3S,4S,5R)-5-(6-Amino-9H-purin-9-yl)-3-fluoro-4-(hydroxymethyl)tetrahydrofuran-3-yl)methyl triphosphate], the half-inhibitory concentration (IC50) is 320 nM in test [1] and > 100000 nM against human DNA polymerase γ. For the same compound, the “inhibition of HIV-1 RT” value in test [1] is “potent inhibitor of HIV-1 RT”.

The values above are taken from publication PMC9025269, “Synthesis and Anti-Hepatitis B Activities of 3′-Fluoro-2′-Substituted Apionucleosides” (Molecules, 2022).
